Assay results published in patent US9266857B2, “Bicyclic AZA compounds as muscarinic M1 receptor agonists” (Heptares Therapeutics Limited, priority 2012, dated 2016).
pEC50: −log10 of the molar value. Where two headings read alike, the source gives them in different places.

Legend:
[1] = molecular target: T1, human muscarinic M1 receptor (Homo sapiens, UniProt P11229); test: Alphascreen Surefire phospho-ERK1/2 functional assay, M1; type: cell-based; conditions: for EC50: phospho-ERK1/2, read-out: pEC50 M1 (converted); for Emax: CHO
T1 construct: expressed in transfected cells
T1 sequence (P11229 1-460): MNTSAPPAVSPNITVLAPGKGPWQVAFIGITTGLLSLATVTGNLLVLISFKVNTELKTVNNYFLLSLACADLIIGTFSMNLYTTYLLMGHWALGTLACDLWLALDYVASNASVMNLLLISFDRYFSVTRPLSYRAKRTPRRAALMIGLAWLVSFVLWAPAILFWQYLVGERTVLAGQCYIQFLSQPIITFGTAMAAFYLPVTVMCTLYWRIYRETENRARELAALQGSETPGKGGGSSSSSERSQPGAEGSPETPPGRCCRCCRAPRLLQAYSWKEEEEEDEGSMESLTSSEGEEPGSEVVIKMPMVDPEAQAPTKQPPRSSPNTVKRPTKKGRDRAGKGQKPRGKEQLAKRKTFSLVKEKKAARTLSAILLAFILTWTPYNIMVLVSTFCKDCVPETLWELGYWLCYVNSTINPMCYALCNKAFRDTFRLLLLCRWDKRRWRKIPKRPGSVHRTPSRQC
Method: (§1) ERK1/2 phosphorylation is a downstream consequence of both Gq/11 and Gi/o protein coupled receptor activation, making it highly suitable for the assessment of M1, M3 (Gq/11 coupled) and M2, M4 receptors (Gi/o coupled), rather than using different assay formats for different receptor subtypes. CHO cells stably expressing the human muscarinic M1, M2, M3 or M4 receptor were plated (25K/well) onto 96-well tissue culture plates in MEM-alpha+10% dialysed FBS. Once adhered, cells were serum-starved overnight. Agonist stimulation was performed by the addition of 5 μL agonist to the cells for 5 min (37° C.). Media was removed and 50 μL of lysis buffer added. After 15 min, a 4 μL sample was transferred to 384-well plate and 7 μL of detection mixture added. Plates were incubated for 2 h with gentle agitation in the dark and then read on a PHERAstar plate reader.
(§2) pEC50 and Emax figures were calculated from the resulting data for each receptor subtype.

[2] = molecular target: T2, human muscarinic M2 receptor (Homo sapiens, UniProt P08172); test: Alphascreen Surefire phospho-ERK1/2 functional assay, M2; type: cell-based; conditions: for EC50: CHO cells stably expressing human M2, phospho-ERK1/2, read-out: pEC50 M2 (converted); for Emax: CHO, read-out: % Emax cf. ACh, M2
T2 construct: expressed in transfected cells
T2 sequence (P08172 1-466): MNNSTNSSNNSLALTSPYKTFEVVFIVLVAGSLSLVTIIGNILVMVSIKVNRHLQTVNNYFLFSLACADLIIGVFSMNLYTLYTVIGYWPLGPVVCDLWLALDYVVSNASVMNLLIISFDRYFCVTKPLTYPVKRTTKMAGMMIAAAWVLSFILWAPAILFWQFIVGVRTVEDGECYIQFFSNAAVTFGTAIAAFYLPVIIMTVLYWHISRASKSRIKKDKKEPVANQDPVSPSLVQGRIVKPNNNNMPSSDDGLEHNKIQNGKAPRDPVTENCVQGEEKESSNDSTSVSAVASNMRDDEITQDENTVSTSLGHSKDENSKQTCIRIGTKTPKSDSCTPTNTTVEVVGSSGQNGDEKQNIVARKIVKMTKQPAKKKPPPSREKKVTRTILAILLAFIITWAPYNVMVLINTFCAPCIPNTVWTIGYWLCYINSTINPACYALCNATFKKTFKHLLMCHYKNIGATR
Method: as §1, §2

[3] = molecular target: T3, human muscarinic M3 receptor (Homo sapiens, UniProt P20309); test: Alphascreen Surefire phospho-ERK1/2 functional assay, M3; type: cell-based; conditions: for EC50: CHO cells stably expressing human M3, phospho-ERK1/2, read-out: pEC50 M3 (converted); for Emax: CHO, read-out: % Emax cf. ACh, M3
T3 construct: expressed in transfected cells
T3 sequence (P20309 whole entry): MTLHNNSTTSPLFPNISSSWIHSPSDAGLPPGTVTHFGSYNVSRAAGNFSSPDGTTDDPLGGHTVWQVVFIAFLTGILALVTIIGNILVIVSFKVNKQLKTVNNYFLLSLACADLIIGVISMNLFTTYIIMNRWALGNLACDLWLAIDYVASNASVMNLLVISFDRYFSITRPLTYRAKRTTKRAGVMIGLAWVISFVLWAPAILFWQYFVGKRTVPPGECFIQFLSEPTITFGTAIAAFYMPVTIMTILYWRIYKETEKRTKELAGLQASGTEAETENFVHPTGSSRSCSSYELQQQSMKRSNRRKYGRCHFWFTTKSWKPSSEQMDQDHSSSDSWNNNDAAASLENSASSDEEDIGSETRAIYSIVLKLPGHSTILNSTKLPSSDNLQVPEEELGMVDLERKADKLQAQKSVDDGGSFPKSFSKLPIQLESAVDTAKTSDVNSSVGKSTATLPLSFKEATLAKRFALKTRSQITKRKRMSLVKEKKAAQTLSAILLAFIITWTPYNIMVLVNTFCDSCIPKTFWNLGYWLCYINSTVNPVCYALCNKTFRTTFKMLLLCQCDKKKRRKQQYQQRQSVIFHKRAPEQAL
Method: as §1, §2

[4] = molecular target: T4, human muscarinic M4 receptor (Homo sapiens, UniProt P08173); test: Alphascreen Surefire phospho-ERK1/2 functional assay, M4; type: cell-based; conditions: for EC50: phospho-ERK1/2, read-out: pEC50 M4 (converted); for Emax: CHO
T4 construct: expressed in transfected cells
T4 sequence (P08173 1-479): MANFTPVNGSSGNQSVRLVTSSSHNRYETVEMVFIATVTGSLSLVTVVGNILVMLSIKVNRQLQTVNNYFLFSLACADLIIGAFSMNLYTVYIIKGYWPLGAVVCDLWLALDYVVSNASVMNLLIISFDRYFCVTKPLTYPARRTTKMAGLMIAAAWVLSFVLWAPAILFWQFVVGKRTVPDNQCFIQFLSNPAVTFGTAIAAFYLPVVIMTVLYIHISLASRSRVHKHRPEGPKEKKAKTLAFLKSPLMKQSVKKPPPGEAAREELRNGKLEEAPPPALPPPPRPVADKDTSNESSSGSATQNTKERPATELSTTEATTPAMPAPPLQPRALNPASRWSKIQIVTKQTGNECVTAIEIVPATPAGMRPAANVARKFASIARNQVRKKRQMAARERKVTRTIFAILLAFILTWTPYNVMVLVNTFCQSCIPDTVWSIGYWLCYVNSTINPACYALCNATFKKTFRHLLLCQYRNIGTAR
Method: as §1, §2

[5] = tested on: scopolamine-induced amnesia; test: Passive avoidance, scopolamine-induced amnesia; type: in vivo
Method: Studies were carried out as described previously by Foley et al., (2004) Neuropsychopharmacology. In the passive avoidance task scopolamine administration (1 mg/kg, i.p.) at 6 hours following training rendered animals amnesic of the paradigm. A dose range of 3, 10, and 30 mg/kg (po) free base, administered 90 minutes prior to the training period via oral gavage, was examined.

[6] = tested on: fEPSPs in the CA1 region of rat hippocampal slices; test: CA1 cell firing, fEPSPs in hippocampal slices; type: cell-based; conditions: CA1 fEPSP amplitude, 6 slices averaged
Method: Rat hippocampal slices of 400 μm thickness were cut in chilled (<4° C.) artificial cerebrospinal fluid (aCSF, composition in mM: NaCl 127, KCl 1.6, KH2PO4 1.24, MgSO4 1.3, CaCl2 2.4, NaHCO3 26 and D-glucose 10) using vibratome. Slices were maintained in oxygenated (95% O2/5% CO2) aCSF at room temperature for at least 1 hr prior to electrophysiological recording, after which they were transferred to an interface chamber and constantly perfused with warmed (30° C.) oxygenated aCSF at a flow rate of 1.5-3 ml.min-1. Schaffer collaterals were then stimulated (1-20 V, 0.1 ms pulse width, 0.033 Hz) with a concentric bipolar electrode to evoke field excitatory post synaptic potentials (fEPSPs) recorded from the stratum radiatum of the CA1 region. Experiments were performed to examine the effect of compound compared to 1 μM carbachol (CCh), on the amplitude of fEPSPs in the CA1 region of rat hippocampal slices. 1 μM CCh was initially applied until steady-state, followed by wash, before performing a five point cumulative concentration-response to compound. Each compound was tested on 6 slices and results averaged. Drug preparation; compound was dissolved in 100% DMSO at a stock concentration of 30 mM, and diluted according to requirements, carbamoylcholine chloride (CCh) was purchased from Sigma (Cat#C4382) and dissolved at a stock concentration of 1 mM in ddH2O.

[7] = CHO cells stably expressing human M1
[8] = CHO cells stably expressing human M4

Emax ([1]; read-out: % Emax cf. ACh, M1)	Emax ([4]; read-out: % Emax cf. ACh, M4)	Compound	EC50 [1, 7]	Emax ([1]; read-out: % Emax cf. ACh, M1, CHO cells stably expressing human M1, relative to ACh)	EC50 [2]	Emax [2]	EC50 [3]	Emax [3]	EC50 [4, 8]	Emax ([4]; read-out: % Emax cf. ACh, M4, CHO cells stably expressing human M4, relative to ACh)	reversal of scopolamine-induced amnesia of the passive avoidance paradigm ([5]; 3, 10 and 30 mg/kg po)	ED50 ([5]; po, 90 minutes prior to training, scopolamine 1 mg/kg i.p., read-out: approximate ED50, reversal of scopolamine-induced amnesia)	pEC50 [6]	% Emax cf. ACh, M1 ([1]; CHO cells stably expressing human M1, relative to ACh)	% Emax cf. ACh, M4 ([4]; CHO cells stably expressing human M4, relative to ACh, listed as 1 - Isomer 2)
		CCOC(=O)N1CCC2(CC(N3CCC(C(=O)NC4(C)CCC4)CC3)C2)C1 (single isomer, unassigned) [Example 9 - Isomer 2, ethyl 2-{4-[(1-methylcyclobutyl)carbamoyl]piperidin-1-yl}-6-azaspiro[3.4]octane-6-carboxylate]	0.0363 µM	100%	> 20 µM	15%	> 20 µM	9%	0.182 µM	66%	reverse scopolamine-induced amnesia of the paradigm in a dose-dependent manner	~10 mg/kg	5.24		
112%	77%	CCOC(=O)N1CCC2(CC(N3CCC(F)(C(=O)NC4(C)CCC4)CC3)C2)C1 (mixture of isomers) [Example 11 - mixture of diastereomers, ethyl 2-{4-fluoro-4-[(1-methylcyclobutyl)carbamoyl]piperidin-1-yl}-6-azaspiro[3.4]octane-6-carboxylate]	0.0282 µM		> 20 µM	6%	> 20 µM	4%	0.204 µM						
		CCOC(=O)N1C2CCC1CC(N1CCC(C(=O)NC3(C)CCC3)CC1)C2 (single isomer, unassigned) [Example 1 - Isomer 2, ethyl 3-{4-[(1-methylcyclobutyl)carbamoyl]piperidin-1-yl}-8-azabicyclo[3.2.1]octane-8-carboxylate]	0.0417 µM		> 20 µM	0%	> 20 µM	18%	0.17 µM					102%	98%
107%	111%	[2H]C([2H])([2H])C1(NC(=O)C2CCN(C3CC4(CCN(C(=O)OCC)C4)C3)CC2)CCC1 (single isomer, unassigned) [Example 21 - Isomer 2, ethyl 2-(4-{[1-(1,1,1-trideuteromethyl)cyclobutyl]carbamoyl}piperidin-1-yl)-6-azaspiro[3.4]octane-6-carboxylate]	0.0676 µM		> 20 µM	9%	> 20 µM	12%	0.17 µM						
